How the values were obtained:
[1] = Pharmacokinetics after 30 min i.v. infusion, phase I trial in hepatocellular carcinoma patients; assay type: in vivo, human; conditions: for Relative Exposure, Bel-G/Bel AUC ratio: AUC0–24 h molar ratio; for relative systemic exposure of belinostat glucuronide versus belinostat: human plasma, molar concentration AUC ratio
Experimental: This multicentre phase I trial of belinostat was done in Hong Kong and Singapore. All patients provided written informed consent according to Good Clinical Practice guidelines, and the protocol was approved by the institutional review boards of Prince of Wales Hospital, Hong Kong and National University Hospital, Singapore.
Venous blood samples had been collected in heparinized tubes. Collected blood samples were centrifuged at 3000 g for 10–15 min and the plasma (supernatant) was separated from the cell pellet and stored in plain tubes at –80°C till analysis. […] Briefly, vorinostat-G was used as the internal standard for belinostat-G. The mass spectrometer was operated in positive ion mode with the optimal mass transitions of belinostat-G: m/z 495>93 and vorinostat-G: m/z 441>232, respectively. The analytical method was well validated with good linearity (coefficient of determination, r^2≥0.999) in the range of 1–100 µM for belinostat-G.
Pharmacokinetic parameters were estimated based on non-compartmental analysis model using WinNonlin software version 5.3 (Pharmsight, Sunnyvale, CA, USA). […] One way analysis of variance (ANOVA) was used to determine the significance among the genotypes with Tukey posthoc tests for adjustment for comparison between individual groups. A value of p<0.05 was considered to be significant.

[2] = system: HepG2 cells; experiment: MTS growth inhibition assay; assay type: cell-based, human; conditions: HepG2, 72 h
Experimental: (§1) To the other plate, equal molar concentrations of belinostat-G were added similarly. After 72 h, cells were stained with Gentian Violet paint (0.5% w/v; B.P.) and assessed for viability. […] After incubating 24 h, 100-µL drug solution or blank medium was added into each well of 96-well plates. 72 h later, 20 µL of MTS/PES was added into each well for incubation for 3 h. OD values are measured on wavelength 490 nm. Cell growth inhibition was calculated based on the […] with subtraction of background reading for only medium containing wells. The growth inhibition was defined as the percentage of the average […] from drug-treated wells over that from control wells without treatment. The experiment was done in triplicates. IC50 values were calculated using GraphPad PRISM software (GraphPad Software, Inc., La Jolla, CA, USA).

[3] = Acidic stability test; assay type: physicochemical; conditions: for variation in concentrations between beginning and after 24 h: 37°C, acidic solutions pH 2.6–6.5; for stability in acidic solutions: 24 h incubation at 37°C, pH 2.6–6.5
Experimental: 1 mg/mL of belinostat-G and vorinostat-G was prepared in various vehicles with different pH values. These vehicles included 10 mM ammonium acetate (pH = 6.5), 10 mM ammonium formate (pH = 6.0), 0.1% acetic acid (pH = 3.2) and 0.1% formic acid (pH = 2.6). All of these test samples were incubated at 37°C for 24 h. Milli Q water (pH = 5.5) was used as control solution which was stored in −20°C. All the samples were analyzed by LC-MS/MS to obtain the values of peak area for belinostat-G and vorinostat-G. The acidic stability of both conjugated compounds was evaluated through comparison of peak area ratio of test samples versus control.

[4] = system: HepG2 cells; experiment: Gentian Violet viability staining, 24-well plates; assay type: cell-based, human; conditions: 0–10 µM, 72 h
Experimental: as §1

[5] = substrate: O=C(/C=C/c1cccc(S(=O)(=O)Nc2ccccc2)c1)NO; experiment: UGT supersome screening and kinetic analysis; assay type: in vitro ADME, human; conditions: other: UGT1A1 supersomes, 10 to 750 µM substrate, Michaelis-Menten
Experimental: Before the addition of substrate, the incubation mixture was prewarmed and equilibrated for 5 min at 37°C. […] The incubation mixture was vortexed and centrifuged (10,060 g) at 4°C for 10 min, and the supernatants were analyzed. Insect microsomes without UGT cDNA served as negative control. […] Incubations were performed as described above. Three independent experiments were performed for kinetic analysis.
Plots of substrate concentration, S (X axis) versus v (Y axis) were then constructed. Km and Vmax were calculated using the Michaelis-Menten equation (GraphPad software, Inc., San Diego, CA, USA).

O=C(/C=C/c1cccc(S(=O)(=O)Nc2ccccc2)c1)NO[C@@H]1O[C@H](C(=O)O)[C@@H](O)[C@H](O)[C@H]1O [Belinostat-G, Belinostat glucuronide]
Relative Exposure, Bel-G/Bel AUC ratio ([1]; 600 mg/m^2): 4.79±0.46 | Relative Exposure, Bel-G/Bel AUC ratio ([1]; 900 mg/m^2): 4.22±0.15 | Relative Exposure, Bel-G/Bel AUC ratio ([1]; 1200 mg/m^2): 4.82±1.80 | Relative Exposure, Bel-G/Bel AUC ratio ([1]; 1400 mg/m^2): 4.13±0.68 | relative systemic exposure of belinostat glucuronide versus belinostat ([1]; listed as belinostat glucuronide): more than 4 fold | relative systemic exposure of belinostat glucuronide versus belinostat ([1]; listed as belinostat-G): 4 fold | IC50 (MTS) [2]: cannot be converged | variation in concentrations between beginning and after 24 h [3]: < 4% | stability in acidic solutions [3]: stable | degradation ([3]; pH 2.6, 37°C, 24 h): 7% | cytotoxicity / cell viability (staining) [4]: did not seem to affect cell viability

O=C(CCCCCCC(=O)Nc1ccccc1)NO[C@@H]1O[C@H](C(=O)O)[C@@H](O)[C@H](O)[C@H]1O [vorinostat-G, Vorinostat glucuronide]
variation in concentrations between beginning and after 24 h [3]: < 4% | stability in acidic solutions [3]: stable

B1: UGT1A1 (Homo sapiens) (protein)
chain: HAGKILLIPVDGSHWLSMLGAIQQLQQRGHEIVVLAPDASLYIRDGAFYTLKTYPVPFQREDVKESFVSLGHNVFENDSFLQRVIKTYKKIKKDSAMLLSGCSHLLHNKELMASLAESSFDVMLTDPFLPCSPIVAQYLSLPTVFFLHALPCSLEFEATQCPNPFSYVPRPLSSHSDHMTFLQRVKNMLIAFSQNFLCDVVYSPYATLASEFLQREVTVQDLLSSASVWLFRSDFVKDYPRPIMPNMVFVGGINCLHQNPLSQEFEAYINASGEHGIVVFSLGSMVSEIPEKKAMAIADALGKIPQTVLWRYTGTRPSNLANNTILVKWLPQNDLLGHPMTRAFITHAGSHGVYESICNGVPMVMMPLFGDQMDNAKRMETKGAGVTLNVLEMTSEDLENALKAVINDKSYKENIMRLSSLHKDRPVEPLDLAVFWVEFVMRHKGAPHLRPAAHDLTWYQYHSLDVIGFLLAVVLTVAFITFKCCAYGYRKCLGKKGRVKKAHKSKTH
notes: purchased BD Gentest
Km [5]: 99.6 µM | Vmax [5]: 353.1 pmol/min/mg protein | Vmax/Km [5]: 3.5 µL/min/mg protein
